For experiment [1], the target named is fetal hemoglobin (HbF) (Homo sapiens, UniProt P69892+P69905). Briefly: oxygen equilibrium curves / P50 value of fetal hemoglobin (HbF). It counts as biochemical. Particulars: for shift of the oxygen equilibrium curve of fetal hemoglobin (HbF): 0.6-4.0 mM compound with 0.6 or 2.5 mM 2,3-BPG (FIG. 9, 10); for oxygen affinity modulating effect (increase of P50 value) on fetal hemoglobin compared with 2,3-BPG: FIG. 8, varying concentrations; for oxygen release efficiency of fetal hemoglobin (HbF) relative to normal hemoglobin: with 2,3-BPG (FIG. 9, 10).
Chain of fetal hemoglobin (HbF) (P69905 2-142 limits assumed): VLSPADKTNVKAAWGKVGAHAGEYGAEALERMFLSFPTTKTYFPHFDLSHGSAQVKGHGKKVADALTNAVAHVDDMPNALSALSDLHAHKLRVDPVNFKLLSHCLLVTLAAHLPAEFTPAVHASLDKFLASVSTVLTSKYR
Chain of fetal hemoglobin (HbF) (P69892 2-147 limits assumed): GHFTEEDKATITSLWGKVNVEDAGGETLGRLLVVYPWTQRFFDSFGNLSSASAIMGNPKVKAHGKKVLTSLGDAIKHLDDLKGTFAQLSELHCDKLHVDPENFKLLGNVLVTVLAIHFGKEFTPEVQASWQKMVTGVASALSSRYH

Experiment [2] concerns the target hemoglobin (Homo sapiens, UniProt P68871+P69905). The experiment can be described thus: oxygen equilibrium curves / P50 value of hemoglobin. In kind it is biochemical. Particulars: for effect with 2,3-BPG in modulating hemoglobin allostery: FIG. 2.

“Also recorded” adds a separate entry of the source.

Chain of hemoglobin (P69905 2-142 limits assumed): as the sequence (P69905 2-142 limits assumed) above
Chain of hemoglobin (P68871 2-147 limits assumed): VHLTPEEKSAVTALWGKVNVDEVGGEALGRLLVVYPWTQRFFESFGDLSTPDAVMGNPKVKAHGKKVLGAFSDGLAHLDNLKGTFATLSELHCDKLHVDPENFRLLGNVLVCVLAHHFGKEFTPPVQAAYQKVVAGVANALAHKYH

`CCC/C=C1\OC(=O)c2ccccc21` [Z-butylidenephthalide]: in experiment [1], the “shift of the oxygen equilibrium curve of fetal hemoglobin (HbF)” value is listed as “effectively shift the oxygen equilibrium curve for the fetal hemoglobin (HbF) to the right; also recorded: effectively shift the oxygen equilibrium curve of the fetal hemoglobin (HbF) to the right”, the “oxygen affinity modulating effect (increase of P50 value) on fetal hemoglobin compared with 2,3-BPG” value is reported as “stronger modulating effect than 2,3-BPG; also recorded: higher than that of 2,3-BPG” and the “oxygen release efficiency of fetal hemoglobin (HbF) relative to normal hemoglobin” value is recorded as “achieve the same oxygen release efficiency as the normal hemoglobin”.
As to `CCC/C=C1\OC(=O)C2=C1CCC=C2` [Z-ligustilide], in experiment [2], the “effect with 2,3-BPG in modulating hemoglobin allostery” value is “synergistic effect”. In experiment [1], the “shift of the oxygen equilibrium curve of fetal hemoglobin (HbF)” value is “effectively shift the oxygen equilibrium curve for the fetal hemoglobin (HbF) to the right”, the “oxygen affinity modulating effect (increase of P50 value) on fetal hemoglobin compared with 2,3-BPG” value is given as “stronger modulating effect than 2,3-BPG; also recorded: higher than that of 2,3-BPG” and the “oxygen release efficiency of fetal hemoglobin (HbF) relative to normal hemoglobin” value is “achieve the same oxygen release efficiency as the normal hemoglobin”.
Take `CCC/C=C1\OC(=O)C2=C1CC[C@@H](O)[C@@H]2O` [senkyunolide I]: the “effect with 2,3-BPG in modulating hemoglobin allostery” value in experiment [2] is recorded as “synergistic effect”.
On to `O=C(O)C(COP(=O)(O)O)OP(=O)(O)O` (centres unmarked) [2,3-BPG, 2,3-bisphosphorglycerate], for which the “oxygen release efficiency of hemoglobin” value in experiment [2] (1.2 mM 2,3-BPG, PO2 20 mmHg) is on record as 40%; in experiment [2] (12 mM 2,3-BPG, oxygen partial pressure 20 mmHg, 20% without 2,3-BPG) it was 65%; in experiment [2] (varying concentrations of 2,3-BPG, brain physiological PO2, from 10%), 30%. Moreover, the “oxygen saturation fraction of hemoglobin” value in experiment [2] (1.2 mM 2,3-BPG, PO2 20 mmHg (FIG. 7)) is reported as “approximately 60%”; in experiment [2] (12 mM 2,3-BPG, fixed oxygen partial pressure of 20 mmHg, 80% where no 2,3-BPG is present) it was 35%; in experiment [2] (varying concentrations of 2,3-BPG, brain physiological PO2 (33.8±2.6 mmHg), from 90% (FIG. 4)) it was about 70%. Besides, the “P50 value of hemoglobin” value in experiment [2] (approximately 4 mM 2,3-BPG, no phthalide compound) is 18.8 mmHg. The “oxygen release efficiency of normal cells” value in experiment [2] (varying concentrations of 2,3-BPG, PO2 of normal cells, from 20%) is about 65%. The “modulating effect of 2,3-BPG on fetal hemoglobin (HbF) relative to normal hemoglobin” value in experiment [1] is listed as “not as effective as that on the normal hemoglobin”.

The record behind these values is US9713602B1, “Method for facilitating the oxygen release of hemoglobin-based blood substitutes” (National Sun Yat-sen University, priority 2016, dated 2017).
